Laboratory results as given in patent US6818407B2, “Anti-endotoxic antimicrobial cationic peptides and methods of use therfor” (priority 1998, dated 2004).
Ends that are not written are not given here.

Legend:
Format in all cases: cell-based
[1] = system: β-lactamase derepressed mutant (H547) of P. aeruginosa; experiment: microbe, parasite or virus in culture; settings: Pseudomonas aeruginosa, read-out: MIC B MIC of Carb
Experimental: (§1) The biological activity of the peptides can be determined by standard methods known to those of skill in the art, such as Aminimal inhibitory concentration (MIC)≅ assay described in the present examples, whereby the lowest concentration at which no change in OD is observed for a given period of time is recorded as MIC. Alternatively, Afractional inhibitory concentration (FIC)≅ is also useful for determination of synergy between the peptides of the invention, or the peptides in combination with known antibiotics. FICs are performed by checkerboard titrations of peptides in one dimension of a microtiter plate, and of antibiotics in the other dimension, for example. The FIC is calculated by looking at the impact of one antibiotic on the MIC of the other and vice versa. […] Preferably, an FIC of less than 0.5 is obtained for synergism. As used herein, FIC can be determined as follows: [formula]
(§2) To test whether the peptides of the invention synergize with various antibiotics, the following method was employed. Fractional Inhibitory Concentration (FIC) was used to determine synergy of peptides combined with antibiotics (e.g., carbenicillin/ciprofloxacin) against Pseudomonas aeruginosa. The following methodology was followed:
(§3) (1) Determination of MIC of cationic peptides (MIC A):
(§4) 100 μl Mueller Hinton broth (MHB) was added per well
(§5) 12.5 μl of 10× test concentration peptide was added per well to get final peptide concentration of e.g., 128, 64, 32, . . . 0.025 μg/ml from row 1 to 11;
(§6) 10 μl of 10^−4 dilution of overnight bacterial culture was added per well.
(§7) (2) Determination of MIC of Carbenicillin/Ciprofloxacin (MIC B):
(§8) 100 μl MHB was added per well;
(§9) 100 μl of 2× test concentration of antibiotic was added in the first well of the row, and doubling dilutions performed across the plate from column 1 to 11;
(§10) (3) Determination of MIC of antibiotics (B) when combined with peptides at concentration A:
(§11) 100 μl Carbenicillin (512 μg/ml) or Ciprofloxacin (8 μg/ml) was added in each well of column 1; doubling dilutions were performed across the plate;
(§12) 100 μl of the peptide was added in all wells of row 1, mixed, and 100 μl withdrawn and added to row 2, etc., creating a checkerboard titration.
(§13) 10 μl of 10^−4 dilution of overnight culture was added per well;
(§14) plates were incubated at 37EC for 18-24 hours. Combination MIC values A and B were taken as the lowest concentration of drug that reduced bacterial growth by more than 50% in any given column.
(§15) (4) FIC index=FICA+FICB=(A)/MIC A+(B)/MIC B. An FIC index of approximately 0.5 or less indicates synergy; 1.0 reflects additivity; and >1.0 indicates antagonism.

[2] = system: mutant (Nal B, H744) of P. aeruginosa; experiment: microbe, parasite or virus in culture; settings: Pseudomonas aeruginosa, read-out: MIC B MIC of Cipro
Experimental: as §1, §2, §3, §4, §5, §6, §7, §8, §9, §10, §11, §12, §13, §14, §15

[3] = system: P. aeruginosa efflux mutant (Nal B, H744); experiment: microbe, parasite or virus in culture
Experimental: as §1, §2, §3, §4, §5, §6, §7, §8, §9, §10, §11, §12, §13, §14, §15

Vibrio anguillarum (Va) = settings: Mueller Hinton Broth
Experimental: as §1
(§16) These peptides varied in activity (Table 11), however, the C-terminally capped pleurocidin especially and its N-terminally capped lysine derivative had much better activities against a variety of bacteria including Vibrio anguillarum (Va), Aeromonas salmonicida (As), Staphylococcus epidermidis (C621), Salmonella typhimurium wild type (C587) and phoP phoQ mutant (C610), and Pseudomonas aeruginosa wild type (K799) and outer membrane barrier altered (Z61). The antimicrobial peptide CEME, a fusion peptide made from portions of an insect defensin ceropin A and the bee venom peptide melittin (Piers and Hancock, Mol. Microbiol., 12:951-8, 1994), as well as the known antibiotics polymyxin B and gentamicin were used as controls. Replacing the pleurocidin N-terminus with the dermaseptin N-terminus had no effect. Replacing pleurocidin N-terminus with the ceratoxin N-terminus reduced activity. […] Amidating the C-terminus improved antimicrobial activity. Replacing the pleurocidin C-terminus with the misgurin C-terminus had no effect.
(§17) Bacteria included Vibrio anguillarum (Va), Aeromonas salmonicida (As), Staphylococcus epidermidis (C621), Salmonella typhimurium wild type (C587) and phoP phoQ mutant (C6 10), and Pseudomonas aeruginosa wild type (K799) and outer membrane barrier altered (Z61).

[4] = system: Salmonella typhimurium wild type (C587); settings: Mueller Hinton Broth
Experimental: as §1, §16, §17

[5] = system: Pseudomonas aeruginosa wild type (K799); settings: Mueller Hinton Broth
Experimental: as §1, §16, §17

[6] = system: Salmonella typhimurium phoP phoQ mutant (C610); settings: Mueller Hinton Broth
Experimental: as §1, §16, §17

[7] = system: Pseudomonas aeruginosa outer membrane barrier altered (Z61); settings: Mueller Hinton Broth
Experimental: as §1, §16, §17

[8] = system: Aeromonas salmonicida (As); settings: Mueller Hinton Broth
Experimental: as §1, §16, §17

[9] = system: Staphylococcus epidermidis (C621); settings: Mueller Hinton Broth
Experimental: as §1, §16, §17

CC1(C)S[C@@H]2[C@H](NC(=O)C(C(=O)O)c3ccccc3)C(=O)N2[C@H]1C(=O)O (stereo partly drawn) [Carb, Carbenicillin, reference compound]
MIC [1]: 64 mg/L

O=C(O)c1cn(C2CC2)c2cc(N3CCNCC3)c(F)cc2c1=O [Cipro, ciprofloxacin, reference compound]
MIC [2]: 0.25 mg/L

CCn1cc(C(=O)O)c(=O)c2ccc(C)nc21 [Nal, nalidixic acid, reference compound]
MIC ([3]; Pseudomonas aeruginosa, read-out: MIC B MIC of Nal): 3200 mg/L | MIC B MIC of Nal ([3]; nalidixic acid alone, efflux mutant Nal B, H744, unit from method): 3200 mg/L

ALWKTMLKKAAHVGKHVGKAALGAAARRRK [DER-M]
MIC Va (Vibrio anguillarum (Va)): >64 mg/L | MIC C587 [4]: 32 mg/L | MIC K799 [5]: 64 mg/L | MIC C610 [6]: 0.5 mg/L | MIC Z61 [7]: 8 mg/L | MIC As [8]: 2 mg/L | MIC C621 [9]: 32 mg/L

ALWKTMLKKAAHVGKHVGKAALTHYL-NH2 [P-DER]
MIC Va (Vibrio anguillarum (Va)): 4 mg/L | MIC C587 [4]: 4 mg/L | MIC K799 [5]: 16 mg/L | MIC C610 [6]: 0.5 mg/L | MIC Z61 [7]: 8 mg/L | MIC As [8]: 1 mg/L | MIC C621 [9]: 4 mg/L
